This is an account of results in ChEMBL document CHEMBL1130607, “Reversal of multidrug resistance (MDR) by aspidofractinine-type indole alkaloids” (Bioorg Med Chem Lett, 1998).

Experiment [1] has as its system Epidermoid carcinoma cell line. Briefly: Compound was evaluated for cytotoxicity against vincristine- resistant (KB/VJ300) human oral epidermoid carcinoma cell line; poor activity or moderate activity. Format: functional, cell-based.
Experiment [2] concerns Epidermoid carcinoma cell line. Briefly: Compound was evaluated for cytotoxicity against vincristine- resistant (KB/VJ300) human oral epidermoid carcinoma cell line. Format: functional, cell-based.
In experiment [3] the test system is Epidermoid carcinoma cell line. Put plainly: Compound was evaluated for cytotoxicity against vincristine-resistant (KB/VJ300) human oral epidermoid carcinoma cell line. Format: functional, cell-based.
Experiment [4] concerns Epidermoid carcinoma cell line. Briefly: Compound was evaluated for cytotoxicity against vincristine- resistant (KB/VJ300) human oral epidermoid carcinoma cell line; P = poor activity or moderate activity. Type of experiment: functional, cell-based.
The subject of experiment [5] is Epidermoid carcinoma cell line. Put plainly: Compound was evaluated for cytotoxicity against vincristine- sensitive (KB/S) human oral epidermoid carcinoma cell line at 7 ug/mL. Format: functional.

Converted amounts (≈) assume the structure as drawn.

The term IC50 denotes the concentration at which inhibition is half-maximal.

Take `COC(=O)N1c2c(OC)cccc2[C@@]23[C@H]4C(=O)[C@@]5(O)[C@H]6O[C@H]4N4CC[C@H](O)[C@]6(CC[C@]125)[C@H]43`: the IC50 entry in experiment [1] is reported as “poor activity or moderate activity”.

In turn, `COC(=O)[C@@H]1CC23CCCN4CC[C@@]5(c6cccc(OC)c6N(C(=O)OC)C15CC2)[C@@H]43` (stereo partly specified) showed an IC50 in experiment [2] of 21 µg/mL (≈ 49.2 µM). In experiment [3], `COC(=O)C1=CC23CCCN4CC[C@@]5(c6ccc7c(c6N(C(=O)OC)C15CC2)OCO7)[C@@H]43` (stereo partly specified) registered an IC50 of 4.4 µg/mL (≈ 10 µM).

Compound `COC(=O)N1c2c(ccc(OC)c2OC)[C@@]23CCN4CCCC5(CCC12[C@](O)(C(=O)OC)C5)[C@H]43` (stereo partly specified) displayed an IC50 in experiment [3] of 1.6 µg/mL (≈ 3.39 µM). Take `COC(=O)N1c2c(ccc(O)c2OC)[C@@]23CCN4CCCC5(CCC12[C@](O)(C(=O)OC)C5)[C@H]43` (stereo partly specified): in experiment [4] (Homo sapiens, Epidermoid carcinoma cell line, read-out: IC50), the half-maximal inhibitory concentration (IC50) is over 25 µg/mL. Regarding `COC(=O)N1c2c(OC)cccc2[C@@]23CCN4C[C@H]5O[C@H]5[C@]5(CC[C@]12[C@](O)(C(=O)OC)[C@@H]5O)[C@H]43`, the IC50 result in experiment [1] was “poor activity or moderate activity”. Compound `COC(=O)C1=CC23CCCN4CC[C@@]5(c6cccc(OC)c6N(C(=O)OC)C15CC2)[C@@H]43` (stereo partly specified) yielded a Cell growth in experiment [5] of under 50%. As for `COC(=O)N1c2c(ccc3c2OCO3)[C@]23CC(=O)C[C@@]4(CCCN(C=O)[C@@H]42)CCC13C(=O)OC` (stereo partly specified) [DANUPHYLLINE], the IC50 entry in experiment [1] is reported as “poor activity or moderate activity”. For the compound `COC(=O)N1c2c(OC)cccc2[C@@]23CCN4CCC[C@]5(CC[C@]12[C@](O)(C(=O)OC)[C@@H]5O)[C@H]43` [DIHYDROKOPSINGINE], the IC50 entry in experiment [4] (epidermoid carcinoma cell line) is “Poor or moderate activity”. With `COC(=O)N1c2ccccc2[C@@]23[C@@H]4CN5CCC[C@]6(CC[C@]12[C@@H](O)[C@@H]6C4=O)[C@H]53` [FRUTICOSAMINE], the half-inhibitory concentration (IC50) result in experiment [1] is on record as “poor activity or moderate activity”.

In turn, `COC(=O)N1c2c(ccc3c2OCO3)[C@@]23CCN4CCCC5(CCC12[C@](O)(C(=O)OC)C5)[C@H]43` (stereo partly specified) [KOPSAMINE] showed a half-inhibitory concentration (IC50) in experiment [3] of 5.6 µg/mL (≈ 12.3 µM). As to `CCO[C@H]1C[C@@H]2O[C@@H]3[C@]14CC[C@@]1(N(C(=O)OC)c5c(OC)cccc5[C@@]15CCN2[C@@H]45)[C@]3(O)C(=O)OC` [KOPSIDINE B], the IC50 entry in experiment [1] was “poor activity or moderate activity”. In experiment [3], `COC(=O)N1c2ccccc2[C@@]23CCN4CCCC5(CCC12[C@](O)(C(=O)OC)C5)[C@H]43` (stereo partly specified) [KOPSIFLORINE] displayed an IC50 of 2.3 µg/mL (≈ 5.58 µM). `COC(=O)N1c2c(OC)cccc2[C@@]23CCN4CCCC5(CCC12[C@](O)(C(=O)OC)C5)[C@H]43` (stereo partly specified) [KOPSILONGINE]: the IC50 in experiment [2] is 15.4 µg/mL (≈ 34.8 µM). In the case of `COC(=O)N1c2c(OC)cccc2[C@@]23CCN4CC[C@H](O)[C@]5(CC[C@]12[C@](O)(C(=O)OC)[C@@H]5O)[C@H]43` [KOPSINGANOL], the IC50 result in experiment [1] is on record as “poor activity or moderate activity”.

With `COC(=O)N1c2c(OC)cccc2[C@@]23CCN4CC=C[C@]5(CC[C@]12[C@](O)(C(=O)OC)[C@@H]5O)[C@H]43` [KOPSINGINE], in experiment [2], the IC50 is over 25 µg/mL. Consider `COC(=O)[C@@H]1CC23CCCN4CC[C@@]5(c6ccccc6NC15CC2)[C@@H]43` (stereo partly specified) [KOPSININE], for which the midpoint of inhibition in experiment [2], the IC50, lay at 25 µg/mL (≈ 73.9 µM). Regarding `COC(=O)N1c2c(ccc3c2OCO3)[C@@]23CCN4CCCC5(CCC12[C@](O)(C(=O)OC)C5)[C@]43C#N` (stereo partly specified) [LAHADININE A], the IC50 in experiment [3] was found to be 2.5 µg/mL (≈ 5.19 µM). Consider `COC(=O)N1c2c(ccc3c2OCO3)[C@@]23CC(=O)N(CCCC4=CC[C@]12[C@](O)(C(=O)OC)C4)C3=O` [PAUCIFLORINE A], for which, in experiment [1], the IC50 result is “poor activity or moderate activity”. As for `COC(=O)[C@@H]1CC23CCCN4CC[C@@]5(c6ccccc6N(C(=O)OC)C15CC2)[C@@H]43` (stereo partly specified) [PLEIOCARPINE], in experiment [3], the IC50 was 3.1 µg/mL (≈ 7.82 µM). As to `COC(=O)N1c2c(ccc3c2OCO3)[C@]23[C@H]4OC(=O)[C@@]5(O)C[C@@]6(CCCN(C4=O)[C@@]62O)CC[C@]135` [paucidactine A], the IC50 result in experiment [1] is listed as “poor activity or moderate activity”.
